Results from ChEMBL document CHEMBL3045835, “Comparative study of conventional and microwave-assisted synthesis of some Schiff bases and their potential as antimicrobial agents” (2012).
Values after ≈ are worked out from the molar mass of the structure shown.

Assays:
Format in all cases: functional
[1] = tested on: Aspergillus niger; experiment: Antifungal activity against Aspergillus niger MTCC 2546 at 1500 ug/ml after 18 hr by cup-plate method; conditions: MTCC 2546, 18 h, read-out: DIZ
[2] = tested on: Escherichia coli; experiment: Antibacterial activity against Escherichia coli MTCC 1573 at 200 ug/ml after 18 hr by cup-plate method; conditions: MTCC 1573, 18 h, read-out: DIZ
[3] = tested on: Bacillus subtilis; experiment: Antibacterial activity against Bacillus subtilis MTCC 441 at 1500 ug/ml after 18 hr by cup plate method; conditions: MTCC 441, 18 h, read-out: DIZ
[4] = tested on: Bacillus pumilus; experiment: Antibacterial activity against Bacillus pumilus MTCC 1456 at 200 ug/ml after 18 hr by cup-plate method; conditions: MTCC 1456, 18 h, read-out: DIZ
[5] = tested on: Aspergillus niger; experiment: Antifungal activity against Aspergillus niger MTCC 2546 after 24 hr by broth dilution method; conditions: MTCC 2546, 24 h
[6] = tested on: Staphylococcus aureus; experiment: Antibacterial activity against Staphylococcus aureus MTCC 1430 at 100 ug/ml after 18 hr by cup-plate method; conditions: MTCC 1430, 18 h, read-out: DIZ
[7] = tested on: Escherichia coli; experiment: Antibacterial activity against Escherichia coli MTCC 1573 at 100 ug/ml after 18 hr by cup-plate method; conditions: MTCC 1573, 18 h, read-out: DIZ
[8] = tested on: Bacillus subtilis; experiment: Antibacterial activity against Bacillus subtilis MTCC 441 at 500 ug/ml after 18 hr by cup plate method; conditions: MTCC 441, 18 h, read-out: DIZ
[9] = tested on: Penicillium chrysogenum; experiment: Antifungal activity against Penicillium chrysogenum MTCC 161 at 1000 ug/ml after 18 hr by cup-plate method; conditions: MTCC 161, 18 h, read-out: DIZ
[10] = tested on: Escherichia coli; experiment: Antibacterial activity against Escherichia coli MTCC 1573 at 1000 ug/ml after 18 hr by cup-plate method; conditions: MTCC 1573, 18 h, read-out: DIZ
[11] = tested on: Bacillus pumilus; experiment: Antibacterial activity against Bacillus pumilus MTCC 1456 at 100 ug/ml after 18 hr by cup-plate method; conditions: MTCC 1456, 18 h, read-out: DIZ
[12] = tested on: Escherichia coli; experiment: Antibacterial activity against Escherichia coli MTCC 1573 at 1500 ug/ml after 18 hr by cup-plate method; conditions: MTCC 1573, 18 h, read-out: DIZ
[13] = tested on: Micrococcus luteus; experiment: Antibacterial activity against Micrococcus luteus MTCC 1538 after 24 hr by broth dilution method; conditions: MTCC 1538, 24 h
[14] = tested on: Bacillus pumilus; experiment: Antibacterial activity against Bacillus pumilus MTCC 1456 at 1000 ug/ml after 18 hr by cup-plate method; conditions: MTCC 1456, 18 h, read-out: DIZ
[15] = tested on: Staphylococcus aureus; experiment: Antibacterial activity against Staphylococcus aureus MTCC 1430 after 24 hr by broth dilution method; conditions: MTCC 1430, 24 h
[16] = tested on: Bacillus pumilus; experiment: Antibacterial activity against Bacillus pumilus MTCC 1456 at 1500 ug/ml after 18 hr by cup-plate method; conditions: MTCC 1456, 18 h, read-out: DIZ
[17] = tested on: Pseudomonas fluorescens; experiment: Antibacterial activity against Pseudomonas fluorescens MTCC 2421 after 24 hr by broth dilution method; conditions: MTCC 2421, 24 h
[18] = tested on: Pseudomonas aeruginosa; experiment: Antibacterial activity against Pseudomonas aeruginosa MTCC 424 at 100 ug/ml after 18 hr by cup-plate method; conditions: MTCC 424, 18 h, read-out: DIZ
[19] = tested on: Aspergillus niger; experiment: Antifungal activity against Aspergillus niger MTCC 2546 at 100 ug/ml after 18 hr by cup-plate method; conditions: MTCC 2546, 18 h, read-out: DIZ
[20] = tested on: Pseudomonas fluorescens; experiment: Antibacterial activity against Pseudomonas fluorescens MTCC 2421 at 100 ug/ml after 18 hr by cup-plate method; conditions: MTCC 2421, 18 h, read-out: DIZ
[21] = tested on: Pseudomonas aeruginosa; experiment: Antibacterial activity against Pseudomonas aeruginosa MTCC 424 at 1500 ug/ml after 18 hr by cup-plate method; conditions: MTCC 424, 18 h, read-out: DIZ
[22] = tested on: Penicillium chrysogenum; experiment: Antifungal activity against Penicillium chrysogenum MTCC 161 at 500 ug/ml after 18 hr by cup-plate method; conditions: MTCC 161, 18 h, read-out: DIZ
[23] = tested on: Aspergillus niger; experiment: Antifungal activity against Aspergillus niger MTCC 2546 at 200 ug/ml after 18 hr by cup-plate method; conditions: MTCC 2546, 18 h, read-out: DIZ
[24] = tested on: Pseudomonas aeruginosa; experiment: Antibacterial activity against Pseudomonas aeruginosa MTCC 424 at 1000 ug/ml after 18 hr by cup-plate method; conditions: MTCC 424, 18 h, read-out: DIZ
[25] = tested on: Pseudomonas aeruginosa; experiment: Antibacterial activity against Pseudomonas aeruginosa MTCC 424 after 24 hr by broth dilution method; conditions: MTCC 424, 24 h
[26] = tested on: Pseudomonas fluorescens; experiment: Antibacterial activity against Pseudomonas fluorescens MTCC 2421 at 1500 ug/ml after 18 hr by cup-plate method; conditions: MTCC 2421, 18 h, read-out: DIZ
[27] = tested on: Pseudomonas fluorescens; experiment: Antibacterial activity against Pseudomonas fluorescens MTCC 2421 at 200 ug/ml after 18 hr by cup-plate method; conditions: MTCC 2421, 18 h, read-out: DIZ

Cc1cccnc1/N=C/c1cccc2ccccc12 showed a zone of inhibition at 1500 µg/mL [1] of 21 mm, a zone of inhibition at 200 µg/mL [2] of 14 mm and a zone of inhibition at 1500 µg/mL [3] of 19 mm. The zone of inhibition at 200 µg/mL [4] was 16 mm, the MIC [5] was 200 mg/L (≈ 812 µM) and the zone of inhibition at 100 µg/mL [6] was 10 mm. It also gave a zone of inhibition at 100 µg/mL [7] of 13 mm, a zone of inhibition at 500 µg/mL [8] of 16 mm and a zone of inhibition at 1000 µg/mL [9] of 17 mm. It also gave a zone of inhibition at 1000 µg/mL [10] of 16 mm, a zone of inhibition at 100 µg/mL [11] of 13 mm and a zone of inhibition at 1500 µg/mL [12] of 19 mm. For the same compound, the MIC [13] was 200 mg/L (≈ 812 µM), the zone of inhibition at 1000 µg/mL [14] was 19 mm and the MIC [15] was 400 mg/L (≈ 1620 µM). It also gave a zone of inhibition at 1500 µg/mL [16] of 20 mm, an MIC [17] of 300 mg/L (≈ 1220 µM) and a zone of inhibition at 100 µg/mL [18] of 12 mm. For the same compound, the zone of inhibition at 100 µg/mL [19] was 13 mm, the zone of inhibition at 100 µg/mL [20] was 17 mm and the zone of inhibition at 1500 µg/mL [21] was 18 mm. For the same compound, the zone of inhibition at 500 µg/mL [22] was 15 mm, the zone of inhibition at 200 µg/mL [23] was 16 mm and the zone of inhibition at 1000 µg/mL [24] was 16 mm. The MIC [25] was 300 mg/L (≈ 1220 µM), the zone of inhibition at 1500 µg/mL [26] was 24 mm and the zone of inhibition at 200 µg/mL [27] was 20 mm.
